From patent US11000033B2, “Ketone or oxime compound, and herbicide” (NISSAN CHEMICAL CORPORATION, priority 2014, dated 2021)

How the values were obtained:
Monochoria vaginalis = assay: Test Example 1: herbicidal activity, application before weed generation in submerged conditions (symbol C); format: in vivo; conditions: application herbicide amount 320 g/ha
In short: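 Ratings (5: ≥90%, near complete withering; 4: 70–<90%; 3: 40–<70%; 2: 20–<40%; 1: 5–<20%; 0: ≤5%) were assigned 3 weeks after the diluted emulsion was applied to the water surface of freshly sown, submerged pots.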

Setaria viridis [1] = assay: Test Example 5: herbicidal effect by foliage application, plastic box (symbol G); format: in vivo; conditions: 320 g/ha, 3 weeks after application
In short: (§1)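 Effect is rated 3 weeks after a foliar spray of water-diluted emulsion concentrate at a predetermined herbicide amount. Plants had grown 14 days in a 25° C. to 30° C. greenhouse from seed in sterilized diluvial soil.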

Avena fatua = assay: Test Example 5: herbicidal effect by foliage application, plastic box (symbol I); format: in vivo; conditions: 320 g/ha, 3 weeks after application
In short: as §1

Chenopodium album [2] = assay: Test Example 5: herbicidal effect by foliage application, plastic box (symbol O); format: in vivo; conditions: 320 g/ha, 3 weeks after application
In short: as §1

[3] = system: Echinochloa oryzacola Vasing.; assay: Test Example 2: herbicidal activity, application during weed generation in submerged conditions (symbol A); format: in vivo; conditions: Table 23; application herbicide amount 320 g/ha; grade 0-5 by criteria of Test Example 1
In short: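 Treatment timing was the one- to two-leaf stage, with diluted emulsifiable compound dropped onto the paddy water (depth 4 cm) over alluvial soil. All three species grew from a mixed sowing in a 25° C. to 30° C. greenhouse. Injury was judged by eye 3 weeks on.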

Apera spica-venti = assay: Test Example 4: herbicidal effect by soil treatment (symbol L); format: in vivo; conditions: application herbicide amount 320 g/ha
In short: (§2)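 Seeds were sown in sterilized diluvial soil, covered with about 1.5 cm of soil, and the soil surface was sprayed with a water-diluted emulsion of the compound at a predetermined rate. Plants grew in a greenhouse at 25° C. to 30° C.; effects were scored visually 3 weeks after application.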

Amaranthus retroflexus = assay: Test Example 4: herbicidal effect by soil treatment (symbol N); format: in vivo; conditions: application herbicide amount 320 g/ha
In short: as §2

rice plant = assay: Test Example 5: effect on crop by foliage application, plastic box (symbol b); format: in vivo; conditions: 320 g/ha, 3 weeks after application
In short: (§3)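 Plants were raised from seed in a greenhouse (25° C. to 30° C.) after sowing in a plastic box of sterilized diluvial soil.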

Galium spurium = assay: Test Example 4: herbicidal effect by soil treatment (symbol Q); format: in vivo; conditions: application herbicide amount 320 g/ha
In short: as §2

Chenopodium album [4] = assay: Test Example 4: herbicidal effect by soil treatment (symbol O); format: in vivo; conditions: application herbicide amount 320 g/ha
In short: as §2

beet = assay: Test Example 5: effect on crop by foliage application, plastic box (symbol f); format: in vivo; conditions: 320 g/ha, 3 weeks after application
In short: as §3

Setaria viridis [5] = assay: Test Example 4: herbicidal effect by soil treatment (symbol G); format: in vivo; conditions: application herbicide amount 320 g/ha
In short: as §2

Veronica persica = assay: Test Example 4: herbicidal effect by soil treatment (symbol R); format: in vivo; conditions: application herbicide amount 320 g/ha
In short: as §2

Stellaria media = assay: Test Example 4: herbicidal effect by soil treatment (symbol P); format: in vivo; conditions: application herbicide amount 320 g/ha
In short: as §2

CON=C(C)CC1CC(OC)=C(c2c(C)cc(C)cc2C)C1=O (stereo not drawn) [1-001, 2-mesityl-3-methoxy-5-{2-(methoxyimino)propyl}cyclopent-2-enone]
Herbicidal effect grade, C: Monochoria vaginalis (Monochoria vaginalis): 0 (Herbicidal ratio of 5% or lower (almost no effect)) | G: Setaria viridis, herbicidal effect grade (Setaria viridis [1]): 0 (Herbicidal ratio of 5% or lower (almost no effect)) | I: Avena fatua, herbicidal effect grade (Avena fatua): 0 (Herbicidal ratio of 5% or lower (almost no effect)) | O: Chenopodium album, herbicidal effect grade (Chenopodium album [2]): 0 (Herbicidal ratio of 5% or lower (almost no effect)) | Herbicidal effect grade, A: Echinochloa oryzacola Vasing. [3]: 0 (Herbicidal ratio of 5% or lower (almost no effect)) | L (Apera spica-venti) herbicidal effect grade (Apera spica-venti): 0 (Herbicidal ratio of 5% or lower (almost no effect)) | N (Amaranthus retroflexus) herbicidal effect grade (Amaranthus retroflexus): 0 (Herbicidal ratio of 5% or lower (almost no effect)) | b: directly sowed rice plant, effect on crop grade (rice plant): 0 (Herbicidal ratio of 5% or lower (almost no effect)) | Q (Galium spurium) herbicidal effect grade (Galium spurium): 0 (Herbicidal ratio of 5% or lower (almost no effect)) | O (Chenopodium album) herbicidal effect grade (Chenopodium album [4]): 0 (Herbicidal ratio of 5% or lower (almost no effect)) | melting point: 92 to 98 °C | f: beet, effect on crop grade (beet): 0 (Herbicidal ratio of 5% or lower (almost no effect)) | G (Setaria viridis) herbicidal effect grade (Setaria viridis [5]): 0 (Herbicidal ratio of 5% or lower (almost no effect)) | R (Veronica persica) herbicidal effect grade (Veronica persica): 0 (Herbicidal ratio of 5% or lower (almost no effect)) | P (Stellaria media) herbicidal effect grade (Stellaria media): 0 (Herbicidal ratio of 5% or lower (almost no effect))

CON=C(C)CC1CC(O)=C(c2c(C)cc(C)cc2C)C1=O (stereo not drawn) [1-002, 3-hydroxy-2-mesityl-5-{2-(methoxyimino)propyl}cyclopent-2-enone]
Herbicidal effect grade, C: Monochoria vaginalis (Monochoria vaginalis): 4 (Herbicidal ratio of 70% or higher and lower than 90%) | G: Setaria viridis, herbicidal effect grade (Setaria viridis [1]): 5 (Herbicidal ratio of 90% or more (almost completely withered)) | I: Avena fatua, herbicidal effect grade (Avena fatua): 5 (Herbicidal ratio of 90% or more (almost completely withered)) | O: Chenopodium album, herbicidal effect grade (Chenopodium album [2]): 4 (Herbicidal ratio of 70% or higher and lower than 90%) | Herbicidal effect grade, A: Echinochloa oryzacola Vasing. [3]: 5 (Herbicidal ratio of 90% or more (almost completely withered)) | L (Apera spica-venti) herbicidal effect grade (Apera spica-venti): 5 (Herbicidal ratio of 90% or more (almost completely withered)) | N (Amaranthus retroflexus) herbicidal effect grade (Amaranthus retroflexus): 5 (Herbicidal ratio of 90% or more (almost completely withered)) | b: directly sowed rice plant, effect on crop grade (rice plant): 5 (Herbicidal ratio of 90% or more (almost completely withered)) | Q (Galium spurium) herbicidal effect grade (Galium spurium): 1 (Herbicidal ratio of 5% or higher and lower than 20%) | O (Chenopodium album) herbicidal effect grade (Chenopodium album [4]): 5 (Herbicidal ratio of 90% or more (almost completely withered)) | melting point: 170 to 173 °C | f: beet, effect on crop grade (beet): 5 (Herbicidal ratio of 90% or more (almost completely withered)) | G (Setaria viridis) herbicidal effect grade (Setaria viridis [5]): 3 (Herbicidal ratio of 40% or higher and lower than 70%) | R (Veronica persica) herbicidal effect grade (Veronica persica): 5 (Herbicidal ratio of 90% or more (almost completely withered)) | P (Stellaria media) herbicidal effect grade (Stellaria media): 3 (Herbicidal ratio of 40% or higher and lower than 70%)

CCON=C(C)CC1CC(O)=C(c2c(C)cc(C)cc2C)C1=O (stereo not drawn) [1-003]
Herbicidal effect grade, C: Monochoria vaginalis (Monochoria vaginalis): 5 (Herbicidal ratio of 90% or more (almost completely withered)) | G: Setaria viridis, herbicidal effect grade (Setaria viridis [1]): 5 (Herbicidal ratio of 90% or more (almost completely withered)) | I: Avena fatua, herbicidal effect grade (Avena fatua): 5 (Herbicidal ratio of 90% or more (almost completely withered)) | O: Chenopodium album, herbicidal effect grade (Chenopodium album [2]): 3 (Herbicidal ratio of 40% or higher and lower than 70%) | Herbicidal effect grade, A: Echinochloa oryzacola Vasing. [3]: 5 (Herbicidal ratio of 90% or more (almost completely withered)) | L (Apera spica-venti) herbicidal effect grade (Apera spica-venti): 5 (Herbicidal ratio of 90% or more (almost completely withered)) | N (Amaranthus retroflexus) herbicidal effect grade (Amaranthus retroflexus): 3 (Herbicidal ratio of 40% or higher and lower than 70%) | b: directly sowed rice plant, effect on crop grade (rice plant): 5 (Herbicidal ratio of 90% or more (almost completely withered)) | Q (Galium spurium) herbicidal effect grade (Galium spurium): 0 (Herbicidal ratio of 5% or lower (almost no effect)) | melting point: 135 to 140 °C | f: beet, effect on crop grade (beet): 3 (Herbicidal ratio of 40% or higher and lower than 70%) | G (Setaria viridis) herbicidal effect grade (Setaria viridis [5]): 3 (Herbicidal ratio of 40% or higher and lower than 70%) | P (Stellaria media) herbicidal effect grade (Stellaria media): 3 (Herbicidal ratio of 40% or higher and lower than 70%)

CCC(CC1CC(O)=C(c2c(C)cc(C)cc2C)C1=O)=NOC (stereo not drawn) [1-038]
Herbicidal effect grade, C: Monochoria vaginalis (Monochoria vaginalis): 3 (Herbicidal ratio of 40% or higher and lower than 70%) | G: Setaria viridis, herbicidal effect grade (Setaria viridis [1]): 5 (Herbicidal ratio of 90% or more (almost completely withered)) | I: Avena fatua, herbicidal effect grade (Avena fatua): 5 (Herbicidal ratio of 90% or more (almost completely withered)) | O: Chenopodium album, herbicidal effect grade (Chenopodium album [2]): 0 (Herbicidal ratio of 5% or lower (almost no effect)) | Herbicidal effect grade, A: Echinochloa oryzacola Vasing. [3]: 5 (Herbicidal ratio of 90% or more (almost completely withered)) | L (Apera spica-venti) herbicidal effect grade (Apera spica-venti): 5 (Herbicidal ratio of 90% or more (almost completely withered)) | N (Amaranthus retroflexus) herbicidal effect grade (Amaranthus retroflexus): 3 (Herbicidal ratio of 40% or higher and lower than 70%) | b: directly sowed rice plant, effect on crop grade (rice plant): 5 (Herbicidal ratio of 90% or more (almost completely withered)) | Q (Galium spurium) herbicidal effect grade (Galium spurium): 0 (Herbicidal ratio of 5% or lower (almost no effect)) | O (Chenopodium album) herbicidal effect grade (Chenopodium album [4]): 0 (Herbicidal ratio of 5% or lower (almost no effect)) | melting point: 147 to 149 °C | f: beet, effect on crop grade (beet): 1 (Herbicidal ratio of 5% or higher and lower than 20%) | G (Setaria viridis) herbicidal effect grade (Setaria viridis [5]): 5 (Herbicidal ratio of 90% or more (almost completely withered)) | R (Veronica persica) herbicidal effect grade (Veronica persica): 0 (Herbicidal ratio of 5% or lower (almost no effect)) | P (Stellaria media) herbicidal effect grade (Stellaria media): 0 (Herbicidal ratio of 5% or lower (almost no effect))

CC(CC1CC(O)=C(c2c(C)cc(C)cc2C)C1=O)=NO (stereo not drawn) [1-058]
Herbicidal effect grade, C: Monochoria vaginalis (Monochoria vaginalis): 0 (Herbicidal ratio of 5% or lower (almost no effect)) | G: Setaria viridis, herbicidal effect grade (Setaria viridis [1]): 5 (Herbicidal ratio of 90% or more (almost completely withered)) | I: Avena fatua, herbicidal effect grade (Avena fatua): 5 (Herbicidal ratio of 90% or more (almost completely withered)) | O: Chenopodium album, herbicidal effect grade (Chenopodium album [2]): 0 (Herbicidal ratio of 5% or lower (almost no effect)) | Herbicidal effect grade, A: Echinochloa oryzacola Vasing. [3]: 5 (Herbicidal ratio of 90% or more (almost completely withered)) | L (Apera spica-venti) herbicidal effect grade (Apera spica-venti): 4 (Herbicidal ratio of 70% or higher and lower than 90%) | N (Amaranthus retroflexus) herbicidal effect grade (Amaranthus retroflexus): 2 (Herbicidal ratio of 20% or higher and lower than 40%) | b: directly sowed rice plant, effect on crop grade (rice plant): 5 (Herbicidal ratio of 90% or more (almost completely withered)) | O (Chenopodium album) herbicidal effect grade (Chenopodium album [4]): 0 (Herbicidal ratio of 5% or lower (almost no effect)) | melting point: 95 to 98 °C | f: beet, effect on crop grade (beet): 0 (Herbicidal ratio of 5% or lower (almost no effect)) | G (Setaria viridis) herbicidal effect grade (Setaria viridis [5]): 5 (Herbicidal ratio of 90% or more (almost completely withered)) | R (Veronica persica) herbicidal effect grade (Veronica persica): 0 (Herbicidal ratio of 5% or lower (almost no effect)) | P (Stellaria media) herbicidal effect grade (Stellaria media): 0 (Herbicidal ratio of 5% or lower (almost no effect))

CCCC(CC1CC(O)=C(c2c(C)cc(C)cc2C)C1=O)=NOC (stereo not drawn) [1-062]
Herbicidal effect grade, C: Monochoria vaginalis (Monochoria vaginalis): 1 (Herbicidal ratio of 5% or higher and lower than 20%) | G: Setaria viridis, herbicidal effect grade (Setaria viridis [1]): 4 (Herbicidal ratio of 70% or higher and lower than 90%) | I: Avena fatua, herbicidal effect grade (Avena fatua): 4 (Herbicidal ratio of 70% or higher and lower than 90%) | O: Chenopodium album, herbicidal effect grade (Chenopodium album [2]): 0 (Herbicidal ratio of 5% or lower (almost no effect)) | Herbicidal effect grade, A: Echinochloa oryzacola Vasing. [3]: 3 (Herbicidal ratio of 40% or higher and lower than 70%) | L (Apera spica-venti) herbicidal effect grade (Apera spica-venti): 4 (Herbicidal ratio of 70% or higher and lower than 90%) | N (Amaranthus retroflexus) herbicidal effect grade (Amaranthus retroflexus): 0 (Herbicidal ratio of 5% or lower (almost no effect)) | b: directly sowed rice plant, effect on crop grade (rice plant): 5 (Herbicidal ratio of 90% or more (almost completely withered)) | Q (Galium spurium) herbicidal effect grade (Galium spurium): 0 (Herbicidal ratio of 5% or lower (almost no effect)) | O (Chenopodium album) herbicidal effect grade (Chenopodium album [4]): 0 (Herbicidal ratio of 5% or lower (almost no effect)) | melting point: 134 to 137 °C | f: beet, effect on crop grade (beet): 0 (Herbicidal ratio of 5% or lower (almost no effect)) | G (Setaria viridis) herbicidal effect grade (Setaria viridis [5]): 5 (Herbicidal ratio of 90% or more (almost completely withered)) | R (Veronica persica) herbicidal effect grade (Veronica persica): 0 (Herbicidal ratio of 5% or lower (almost no effect)) | P (Stellaria media) herbicidal effect grade (Stellaria media): 0 (Herbicidal ratio of 5% or lower (almost no effect))
